Measurements reported in patent EP4545076A1, “LAT1 SELECTIVE INHIBITORS FOR USE IN THE TREATMENT OF ADVERSE VENTRICULAR -REMODELLING AND OF HEART FAILURE” (Fundació Hospital Universitari Vall d'Hebron - Institut de …, priority 2023, dated 2025).

What was measured:
Assay type in all cases: in vivo, C57BL/6N mice
[1] = system: heart failure induced by aortic stenosis; assay: Ventricular dilatation, cardiac function (echocardiography) and pulmonary oedema in TAC mouse model; conditions: after 5 weeks of TAC surgery, 12.5 mg/kg/day ip, vs control group
Description: (§1) Twelve weeks C57BL/6N old mice were anesthetised with ketamine/xylazine (100 mg/kg and 10 mg/kg, respectively) and mechanically ventilated (SAR-830/AP, CWE). The transverse aortic arch was ligated by tying a 6-0 silk suture around the aorta and a 27G needle to yield a partial and reproducible constriction when the needle was removed. In sham animals, the aortic arch was visualized but not banded. Thorax was closed and analgesia was administrated (buprenorphine at 0.1 mg/kg every 12 hours until 48 hours). Mice were euthanized by lethal intraperitoneal dose of sodium pentobarbital (100 mg/kg) (Cat. No. 4579, Tocris).
(§2) The LAT1 inhibitor JPH203 (Cat. No. S8667) was intraperitoneally (ip) and chronically administered, starting the following day after TAC surgery.
(§3) Mice were randomly distributed to receive JPH203 at 12.5 mg/kg/day (prepared at 2 mg/ml of 40% 2-hydroxipropil-beta-cyclodextrin in saline). Sham and control groups received JPH203 vehicle (40% 2-hydroxipropil-beta-cyclodextrin in saline). Mice were euthanized 2 or 5 weeks after surgery.
(§4) Mice underwent transthoracic echocardiography at baseline (before surgery) and at 1, 2 and 5 weeks after surgery. Echocardiography was performed using a Prospect T1 Preclinical High Frequency Ultrasound System with a PB406e Probe 40MHz transducer (S-Sharp) applied to the shaved chest wall of mice anesthetized with isoflurane. The ejection fraction (EF), the left ventricular end-systolic (LVESd) and diastolic (LVEDd) internal diameters, left ventricular anterior wall (LVAW) thickness and left ventricular posterior wall (LVPW) thickness were measured in M-mode recordings.

myocardial BCAA content = assay: LC-MS/MS of BCAA and leucine metabolites in heart extracts of TAC mice
Description: as §1, §2, §3
After 5 hours of fasting, mice were injected with an intraperitoneal dose of L-Leucine-^13C6, ^15N (Cat. No. 608068, Sigma-Aldrich) at 0.1 mg/g 30 minutes before euthanizing with a lethal injection of sodium pentobarbital resuspended in saline and injected at 100 mg/kg (Cat. No. 4579, Tocris).
The levels of Branched-Chain Amino Acids (BCAA) and their main metabolites in biological samples will be determined by Liquid Chromatography tandem Mass Spectrometry (LC-MS/MS). Briefly, the determination of amino acids (BCAA but also amino acids involved in glutaminolysis) was performed by using a hydrophilic interaction chromatography (HILIC) with an amide column. After addition of the adequate internal standard (containing labelled analogues), protein precipitation with organic solvents and centrifugation, the supernatant was injected into the LC-MS/MS system operating in a Selected Reaction Monitoring (SRM) method by acquiring two transitions for each compound. The determination of α-ketoacids, α-hydroxy acids and SCFA (including the main BCAA metabolites and other compounds related with glutaminolysis) was performed by oBHA derivatization. The internal standard (containing labelled analogues) was added into the sample and the mixture was derivatized by adding a derivatizing mixture consisting in oBHA:EDC (1:1) in pyridine. After reaction for 1 h at room temperature, 1 mL of milliQ water and 4 mL of ethyl acetate was added to perform a liquid-liquid extraction. […] Quantification was performed by means of external calibration using authentic referent material. […] Several quality control samples (QCs) were analysed with every analytical batch with the aim of checking the inter-batch robustness of the results. […]

interstitial collagen = assay: Cardiac fibrosis in Transverse Aortic Constriction (TAC) mouse model; conditions: 12.5 mg/kg/day ip
Description: as §1, §2, §3
Hearts were fixed in buffered 4% paraformaldehyde and embedded in paraffin for histological evaluation. The amount of interstitial collagen deposition was determined in 4 µm transverse sections at the papillary muscles level stained with Picrosirius red (Sigma-Aldrich). At least ten random photomicrographs per animal were taken with the Leica DM IRBE Inverted Fluorescence Microscope at x200 magnification. The analysis was performed using Image J 1.50 Software. Interstitial fibrosis was expressed as the percentage of fibrotic area with respect to total area under quantification, perivascular fibrosis was manually excluded from the analysis.

[2] = system: genes involved in BCAA catabolism; assay: BCAA catabolism gene expression (microarray, RT-PCR) in hearts of TAC mice; conditions: 12.5 mg/kg/day ip
Description: as §1, §2, §3
Total RNA was extracted from heart samples using the NZY Total RNA Isolation kit (Cat. No. MB13402, NZY Tech) following the manufacturer's protocol.
RNA was reverse transcribed into cDNA using a High-Capacity cDNA Reverse Transcription kit (Cat. No. 4368814, Applied Biosystems) following manufacturer's instructions. The thermal cycler (Bio-Rad) was programmed to run a single cycle of 25 °C for 10 min, 37 °C for 120 min, 85 °C for 5 min and kept at 4 °C until use.
For determination of differential gene expression, RNA was isolated, as previously described, from mice myocardial samples and its quality was analysed by capillary electrophoresis (Bioanalyzer 2100, Agilent) and amplified using the WT Plus Reagent Kit-HT (Applied Biosystems, Thermo Fisher Scientific). Microarray service was done by the Molecular Diagnosis and Genomic platforms of the High Technology Unit (VHIR) using Clariom S type arrays specific for mouse transcriptome (plate format) (Applied Biosystems). […]

heart hypertrophy = assay: Cardiac hypertrophy in Transverse Aortic Constriction (TAC) mouse model; conditions: 12.5 mg/kg/day ip, vs control group
Description: as §1, §2, §3, §4
Hypertrophy was calculated as heart weight-to-tibia length ratio. Echocardiographic parameters like IVS and LVPW thicknesses, as well as BNP and Myh7 mRNA levels, are the common parameters used to define myocardial hypertrophy.

[3] = 13C,15N-leucine ip 30 minutes before heart extraction, 2 weeks of TAC, 12.5 mg/kg/day ip

Question: For Nc1cc(COc2c(Cl)cc(C[C@H](N)C(=O)O)cc2Cl)c2oc(-c3ccccc3)nc2c1 [JPH203, O-[(5-amino-2-phenyl-1,3-benzoxazol-7-yl)methyl]-3,5-dichloro-L-tyrosine], which “attenuation of the development of pulmonary oedema (water content in lungs)” value ([1]; P<0.001) is on record?
Answer: Its value is 56%.

Question: What about the “attenuation of cardiac dysfunction (reduction in ejection fraction)” value ([1]; P=0.030) of the same molecule?
Answer: The value was 38%.

Question: What about the “reduction of the diastolic volume (LVEDV)” value ([1]; echocardiography, P=0.017) of the same molecule?
Answer: The value was 60%.

Question: What about the “reduction of the systolic volume (LVESV)” value ([1]; echocardiography, P=0.021) of the same molecule?
Answer: Its value is 51%.

Question: And the “increase in the ratio between the plasma and myocardial content of 13C6,15N-leucine (leucine uptake)” value (myocardial BCAA content; [3])?
Answer: The value was “prevented these alterations”.

Question: And the “reduction in the levels of the 13C6,15N-leucine metabolite 13C-HMG” value (myocardial BCAA content; [3])?
Answer: Its value is “prevented these alterations”.

Question: What about the “reduction in the levels of the 13C6,15N-leucine metabolite 13C-isovaleric acid” value (myocardial BCAA content; [3]) of the same molecule?
Answer: Its value is “prevented these alterations”.

Question: And the “increase in the myocardial content of BCAA (valine, leucine and isoleucine)” value (myocardial BCAA content; LC-MS/MS, heart extracts after 2 weeks of TAC surgery, chronic administration 12.5 mg/kg/day ip)?
Answer: Its value is “significantly attenuated”.

Question: What about the “reduced interstitial collagen deposition” value (interstitial collagen; Picrosirius Red stained heart sections, P<0.001) of the same molecule?
Answer: The value was 57%.

Question: What about the “attenuation in the expression of collagen III” value (interstitial collagen; RT-PCR, myocardial homogenates after two weeks of TAC surgery, P=0.002) of the same molecule?
Answer: The value was 58%.

Question: What about the “attenuation in the expression of collagen I” value (interstitial collagen; RT-PCR, myocardial homogenates after two weeks of TAC surgery, P=0.003) of the same molecule?
Answer: Its value is 56%.

Question: And the “reduction in the expression of PP1MK” value ([2]; RT-PCR, hearts, vs control hearts, P=0.013)?
Answer: Its value is “significantly attenuated”.

Question: And the “reduction in the expression of BCKDHB” value ([2]; RT-PCR, hearts, vs control hearts, P=0.015)?
Answer: Its value is “significantly attenuated”.

Question: And the “downregulation of genes involved in BCAA catabolism induced by TAC surgery” value ([2]; microarray, myocardial samples, JPH203 treated vs sham mice)?
Answer: The value was “attenuates the downregulation”.

Question: And the “attenuation of the increase in HW/TL ratio” value (heart hypertrophy; 5 weeks of aortic stenosis, P<0.001)?
Answer: Its value is 33%.

Question: And the “attenuation of the increase in MyH7/MyH6 ratio” value (heart hypertrophy; RT-PCR, P<0.001)?
Answer: Its value is 44%.

Question: What about the “attenuation of the increase in BNP expression” value (heart hypertrophy; RT-PCR, P=0.001) of the same molecule?
Answer: Its value is 65%.

Question: And the “reduction of posterior wall thickness” value (heart hypertrophy; echocardiography, diastole, P=0.006)?
Answer: The value was 28%.

Question: And the “reduction of anterior wall thickness” value (heart hypertrophy; echocardiography, diastole, P=0.026)?
Answer: Its value is 30%.
